The values below come from ChEMBL document CHEMBL1121532, “Pyrido[2,1-b]quinazolinecarboxylic acids as orally active antiallergy agents” (1980).

Broadly, the inhibition in vivo is the change of the read-out against control, counted positive when it falls. Higher therefore signals a strong effect.

What all share (type): functional
Test [1] concerns Rattus norvegicus. Nature of the test: % inhibition of antiallergic activity in the rat passive cutaneous anaphylaxis (PCA) test after giving peroral dose of 32 mg/kg. The settings on record: route oral.
The species entered for test [2] is Rattus norvegicus. Nature of the test: Dose that causes 50% inhibition in the expected wheal size when given perorally. The settings on record: po, read-out: ID50 (the source's name).
The subject of test [3] is Rattus norvegicus. Nature of the test: % inhibition of antiallergic activity in the rat passive cutaneous anaphylaxis (PCA) test after giving intraperitoneal dose of 16 mg/kg. The settings on record: ip.
The test system of test [4] is Rattus norvegicus. Nature of the test: % inhibition of antiallergic activity in the rat passive cutaneous anaphylaxis (PCA) test after giving intraperitoneal dose of 16 mg/kg; Not significant. The settings on record: ip.
The subject of test [5] is Rattus norvegicus. Nature of the test: % inhibition of antiallergic activity in the rat passive cutaneous anaphylaxis (PCA) test after giving intraperitoneal dose of 8 mg/kg. The settings on record: ip.

Take `Cc1ccc2nc3ccc(C(=O)O)cn3c(=O)c2c1`: at 32 mg/kg the inhibition in vivo with Rattus norvegicus [1] was 83%. In the test listed under Rattus norvegicus [2], the ED50 was determined as 3.53 mg/kg. This compound registered an inhibition in vivo at 16 mg/kg in the test on Rattus norvegicus [3] of 58%.

`CC(=O)c1ccc2nc3ccc(C(=O)O)cc3c(=O)n2c1` gave an inhibition in vivo at 16 mg/kg in the test on Rattus norvegicus [3] of 44%.

In the test with Rattus norvegicus [1], `CC(C)c1ccc2nc3ccc(C(=O)O)cc3c(=O)n2c1` gave an inhibition in vivo at 32 mg/kg of 92%. In the test listed under Rattus norvegicus [2], the ED50 amounted to 0.026 mg/kg. In addition, in the test with Rattus norvegicus [3], the inhibition in vivo at 16 mg/kg amounted to 81%.

With `CO/N=C(\C)c1ccc2nc3ccc(C(=O)O)cc3c(=O)n2c1`, the inhibition in vivo at 16 mg/kg with Rattus norvegicus [3] amounted to 36%.

Compound `Cc1ccc2nc3ccc(C(=O)O)cc3c(=O)n2c1` registered an inhibition in vivo at 32 mg/kg with Rattus norvegicus [1] of 81%. The ED50 in the test filed under Rattus norvegicus [2] stood at 7.11 mg/kg. The same compound displayed an inhibition in vivo at 16 mg/kg with Rattus norvegicus [3] of 69%.

In turn, `O=C(O)c1ccc2nc3ccccc3c(=O)n2c1` gave an inhibition in vivo at 16 mg/kg with Rattus norvegicus [4] of 17%.

In the test on Rattus norvegicus [1], `CC(C)c1ccc2nc3ccc(C(=O)O)cn3c(=O)c2c1` gave an inhibition in vivo at 32 mg/kg of 87%. Besides, in the test filed under Rattus norvegicus [2], the ED50 was determined as 0.45 mg/kg. Moreover, the inhibition in vivo at 16 mg/kg with Rattus norvegicus [3] amounted to 76%.

In the test on Rattus norvegicus [1], `O=C(O)c1cc(=O)c2c(OCC(O)COc3cccc4oc(C(=O)O)cc(=O)c34)cccc2o1` [CROMOLYN SODIUM] returned an inhibition in vivo at 32 mg/kg of 18%. In the test on Rattus norvegicus [5], this compound registered an inhibition in vivo at 8 mg/kg of 46%.

`O=C(O)c1ccc2nc3ccccn3c(=O)c2c1` [DOQUALAST]: in the test on Rattus norvegicus [4], testing at 16 mg/kg gave an inhibition in vivo of 16%.
